Tested on: Ascaris suum muscle strip
Assay: Ascaris suum muscle tension assay
Settings: 30 uM final bath concentration; 2 cm Ascaris suum muscle strip in Ascaris Ringers Solution, 37°
Protocol: Compounds of the invention were evaluated in an allatostatin receptor binding assay as has been described (Larsen, M. J. et. al., Biochemical and Biophysical […] Communications, 2001, 286, 895-901; Lowery, D. E., et. al., 2001, WO 01/31005). Anthelmintic activity was evaluated in a Ascaris suum muscle tension assay as has been described (Bowman, J. W., et. al., J Neurophys., 1995, 74(5), 1880-8; Davis, R. E., et. al., J. Neurosci., 1989, 9, 403-414). As previously described (Bowman, op.cit.), a 2 cm segment of Ascaris suum muscle strip was suspended in a muscle bath filled with 37° Ascaris Ringers Solution {ARS; in mM: KCl (24.5), CaCl2 (5.9), MgCl2 (4.9), NaCl (4), NaC2 H3O2 (125) and Tris (5); pH 7.4}. The preparations were initially set at 12-15 g of tension and allowed to stabilize for approximately 15-30 minutes before drug treatment. Test compounds were added by pipet to the bath with final concentration of 30 uM reflecting the dilution in the test chamber. Raw data was collected from the BioReportTM program.

SMILES | Activity
COc1ccc(C(=O)CSc2nnc(-c3ccncc3)n2-c2ccccc2)cc1 [Compound 6] | Excitatory

Molecular target: DAR-2 (Drosophila melanogaster, UniProt Q7KRX1)
Assay: DAR-2 (allatostatin receptor) calcium response FLIPR assay in transfected CHO cells
Type: cell-based
Settings: CHO cells transfected with DAR-2 DNA; calcium signal (Fluo-3AM, FLIPR)
Protocol: Compounds of the invention were evaluated in an allatostatin receptor binding assay as has been described (Larsen, M. J. et. al., Biochemical and Biophysical Reseach Communications, 2001, 286, 895-901; Lowery, D. E., et. al., 2001, WO 01/31005). Anthelmintic activity was evaluated in a Ascaris suum muscle tension assay as has been described (Bowman, J. W., et. al., J Neurophys., 1995, 74(5), 1880-8; Davis, R. E., et. al., J. Neurosci., 1989, 9, 403-414).
As previously described (Larsen op.cit.), CHO cells were transfected with the DAR-2 DNA on 10 cm plates ([…]) and were trypsinized 24 h after transfections and were plated at a density of 2×10^4 cells/well in black-walled, 96-well plates and incubated for an additional 24 hrs at 37° C./5% CO2 either with or without pertussis toxin (PTX, 100 ng/ml). On the day of treatment, the media were aspirated, the cells were washed with HBBS/HEPES (Hank's Balanced Salt Solution, supplemented with 10 mM HEPES) and incubated with 4 μM Fluo-3AM in HBSS/HEPES, additionally supplemented with 2.5 mM probenecid to inhibit multi drug resistant pump (0.1 ml/well) for 1 h at 37° C./5% CO2. Plates were washed twice with warm HBSS/HEPES/ probenecid buffer immediately prior to activation of the calcium response and 100 μl buffer/per well was left after the last wash. A calcium response was initiated by the addition of candidate receptor agonist compounds (2× concentration in HBSS/HEPES, 100 μl/well). The DSK-R1/SHEP cells were loaded for 1 h at 37° C./5% CO2 with 4 μM calcium green/0.02% pluronic acid in modified Earle's balanced salt solution containing 4 mM CaCl2 dihydrate, 0.8 mM MgSO4.7H2O, 20 mM NaCl, 20 mM Tris-HEPES, 120 mM N-methyl-D-glucamine/HCl, 5.3 mM KCl, […], and 9 mM Tris base. Fluorescence was measured on a 96-well plate-based fluorescence imaging plate reader (FLIPR) with an argon laser (Molecular Devices, Sunnyvale, Calif.). Basal fluorescence of cells was measured for 20 seconds prior to addition of candidate agonist and the basal fluorescence level was subtracted from the response signal. The calcium signal was measured for approximately 200 seconds with readings every two seconds. Calcium ionophore A23187 was used as a control for non-receptor specific calcium release. […]

DAR-2, sequence (Q7KRX1 entry or part of it): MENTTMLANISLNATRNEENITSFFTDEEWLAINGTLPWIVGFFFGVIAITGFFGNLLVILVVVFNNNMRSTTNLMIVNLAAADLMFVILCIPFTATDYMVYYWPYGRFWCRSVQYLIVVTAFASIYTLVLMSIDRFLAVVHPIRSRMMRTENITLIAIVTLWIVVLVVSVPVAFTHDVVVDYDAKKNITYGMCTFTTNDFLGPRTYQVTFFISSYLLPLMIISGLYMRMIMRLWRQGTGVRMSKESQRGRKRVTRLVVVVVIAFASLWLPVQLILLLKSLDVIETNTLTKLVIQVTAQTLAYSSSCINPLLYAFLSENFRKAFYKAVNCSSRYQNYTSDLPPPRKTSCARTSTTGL

SMILES | IC50 [nM]
CC(=O)Nc1ccc(C(=O)CSc2nnc(-c3ccncc3)n2-c2ccccc2)cc1[N+](=O)[O-] [Compound 9] | 765
COc1ccc(C(=O)CSc2nnc(-c3ccncc3)n2-c2ccccc2)cc1 [Compound 6] | 54
O=C(CSc1nnc(-c2ccncc2)n1-c1ccccc1)c1ccc(F)cc1 [Compound 11] | 268
O=C(CSc1nnc(-c2ccncc2)n1-c1ccccc1)c1ccccc1 [Compound 12] | 124
O=C(CSc1nnc(-c2ccncc2)n1-c1ccccc1)c1ccc(Cl)cc1 [Compound 7] | 77
CC(=O)Nc1ccc(C(=O)CSc2nnc(-c3ccncc3)n2-c2ccccc2)cc1 [Compound 10] | 297

Now from value to compound:

IC50 [nM] | SMILES
4500 | O=C(CSc1nnc(-c2ccncc2)n1-c1ccccc1)c1ccc2[nH]c(=O)oc2c1 [Compound 15]
436 | O=C(CSc1nnc(-c2ccncc2)n1-c1ccccc1)c1ccc2c(c1)OCCO2 [Compound 14]
0.0014 | COc1ccc(C(=O)CSc2nnc(-c3ccc(OC)cc3)n2-c2ccccc2)cc1 [Compound 43]
103 | COc1ccc(-n2c(SCC(=O)c3ccc4c(c3)OCCO4)nnc2-c2ccncc2)cc1 [Compound 36]
1200 | O=C(CSc1nnc(-c2ccncc2)n1-c1ccccc1)c1ccc(Cl)cc1Cl [Compound 13]

Source: patent publication US20040171650A1, “Novel anthelmintic and insecticidal compositions” (priority 2003, published 2004)
